These compounds were tested against Beta-3 Adrenergic Receptor (Homo sapiens (Human), UniProt P13945) (assay: Homogeneous Time-Resolved Fluorescence (HTRF) cAMP antagonist assay, IC50 determination). Conditions: CHO-K1 cells stably expressing recombinant receptor, isoproterenol at EC90.
Format: cell-based
How it was run: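 Antagonist mode: isoproterenol at its predetermined EC90 added after compound to recombinant CHO-K1 cells in IBMX-containing PBS, 1 h, room temperature. Compounds tested as 5-fold, 10-point dilutions, top final typically 10 or 100 μM. HTRF signal converted to cAMP via standard curve, giving IC50.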

Sequence of Beta-3 Adrenergic Receptor (P13945 whole entry, species assumed): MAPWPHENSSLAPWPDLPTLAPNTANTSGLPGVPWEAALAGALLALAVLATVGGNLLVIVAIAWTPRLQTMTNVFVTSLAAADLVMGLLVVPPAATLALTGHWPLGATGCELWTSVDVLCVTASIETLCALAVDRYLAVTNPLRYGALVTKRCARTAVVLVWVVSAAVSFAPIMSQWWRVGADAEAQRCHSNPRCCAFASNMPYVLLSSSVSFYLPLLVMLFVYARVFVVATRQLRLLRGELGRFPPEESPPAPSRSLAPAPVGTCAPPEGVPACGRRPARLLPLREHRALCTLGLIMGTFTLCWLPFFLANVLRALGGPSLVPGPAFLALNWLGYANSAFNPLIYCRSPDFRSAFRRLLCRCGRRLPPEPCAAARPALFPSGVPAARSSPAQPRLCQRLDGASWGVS

| Structure (SMILES) | IC50 [nM] |
| --- | --- |
| CNS(=O)(=O)c1cccc(OC[C@@H](O)CN[C@H]2COC3(CCN(S(=O)(=O)c4cnc5c(c4)CC(=O)N5)CC3)C2)c1 [Compound 514, 3-((S)-2-hydroxy-3-((R)-8-(2-oxo-2,3-dihydro-1H-pyrrolo[2,3-b]pyridin-5-ylsulfonyl)-1-oxa-8-azaspiro[4.5]decan-3-ylamino)propoxy)-N-methylbenzenesulfonamide] | 176 |
| CNS(=O)(=O)c1cccc(OC[C@@H](O)CNC2COC3(CCN(S(=O)(=O)c4cccc(-c5sccc5C)c4)CC3)C2)c1 (stereo partly drawn) [Compound 116, 3-((2S)-2-hydroxy-3-(8-(3-(3-methylthiophen-2-yl)phenylsulfonyl)-1-oxa-8-azaspiro[4.5]decan-3-ylamino)propoxy)-N-methylbenzenesulfonamide] | 23.5 |
| CCNS(=O)(=O)c1cccc(OC[C@@H](O)CNC2COC3(CCN(S(=O)(=O)c4ccc5ccccc5c4)CC3)C2)c1 (stereo partly drawn) [Compound 101, N-ethyl-3-((2S)-2-hydroxy-3-(8-(naphthalen-2-ylsulfonyl)-1-oxa-8-azaspiro[4.5]decan-3-ylamino)propoxy)benzenesulfonamide] | 9.62 |
| CNS(=O)(=O)c1cccc(OC[C@@H](O)CNC2COC3(CCN(S(=O)(=O)c4ccc5c(c4)OCCO5)CC3)C2)c1 (stereo partly drawn) [Compound 332, 3-((2S)-3-(8-(2,3-dihydrobenzo[b][1,4]dioxin-6-ylsulfonyl)-1-oxa-8-azaspiro[4.5]decan-3-ylamino)-2-hydroxypropoxy)-N-methylbenzenesulfonamide] | 17.9 |
| CCCNS(=O)(=O)c1cccc(OC[C@@H](O)CNC2COC3(CCN(S(=O)(=O)c4ccc5ccccc5c4)CC3)C2)c1 (stereo partly drawn) [Compound 2, 3-((2S)-2-hydroxy-3-(8-(naphthalen-2-ylsulfonyl)-1-oxa-8-azaspiro[4.5]decan-3-ylamino)propoxy)-N-propylbenzenesulfonamide] | 21.1 |
| CNS(=O)(=O)c1cccc(OC[C@@H](O)CNC2COC3(CCN(S(=O)(=O)c4cc(C)cc(Br)c4)CC3)C2)c1 (stereo partly drawn) [Compound 219, 3-((2S)-3-(8-(3-bromo-5-methylphenylsulfonyl)-1-oxa-8-azaspiro[4.5]decan-3-ylamino)-2-hydroxypropoxy)-N-methylbenzenesulfonamide] | 25.3 |
| CNS(=O)(=O)c1cccc(OC[C@@H](O)CNC2COC3(CCN(S(=O)(=O)c4ccccc4-c4ccc(CN)cc4)CC3)C2)c1 (stereo partly drawn) [Compound 381, 3-((2S)-3-(8-(4′-(aminomethyl)biphenyl-2-ylsulfonyl)-1-oxa-8-azaspiro[4.5]decan-3-ylamino)-2-hydroxypropoxy)-N-methylbenzenesulfonamide] | 357 |
| CNS(=O)(=O)c1cccc(OC[C@@H](O)CNC2COC3(CCN(S(=O)(=O)c4cccc(Cl)c4C)CC3)C2)c1 (stereo partly drawn) [Compound 143, 3-((2S)-3-(8-(3-chloro-2-methylphenylsulfonyl)-1-oxa-8-azaspiro[4.5]decan-3-ylamino)-2-hydroxypropoxy)-N-methylbenzenesulfonamide] | 17.1 |
| CCN1CCOc2ccc(S(=O)(=O)N3CCC4(CC3)C[C@@H](NC[C@H](O)COc3cccc(S(=O)(=O)NC)c3)CO4)cc21 [Compound 351, 3-((S)-3-((R)-8-(4-ethyl-3,4-dihydro-2H-benzo[b][1,4]oxazin-6-ylsulfonyl)-1-oxa-8-azaspiro[4.5]decan-3-ylamino)-2-hydroxypropoxy)-N-methylbenzenesulfonamide] | 38.6 |

Continued by falling IC50, values first:

| IC50 [nM] | Structure (SMILES) |
| --- | --- |
| 133 | CCCCCNS(=O)(=O)c1cccc(OC[C@@H](O)CNC2COC3(CCN(S(=O)(=O)c4ccc5ccccc5c4)CC3)C2)c1 (stereo partly drawn) [Compound 3, 3-((2S)-2-hydroxy-3-(8-(naphthalen-2-ylsulfonyl)-1-oxa-8-azaspiro[4.5]decan-3-ylamino)propoxy)-N-pentylbenzenesulfonamide] |
| 121 | CCn1cc(S(=O)(=O)N2CCC3(CC2)C[C@@H](NC[C@H](O)COc2cccc(S(=O)(=O)NC)c2)CO3)c(=O)c2cccc(C)c21 [Compound 545, 3-((S)-3-((R)-8-(1-ethyl-8-methyl-4-oxo-1,4-dihydroquinolin-3-ylsulfonyl)-1-oxa-8-azaspiro[4.5]decan-3-ylamino)-2-hydroxypropoxy)-N-methylbenzenesulfonamide] |
| 65.6 | CNS(=O)(=O)c1cccc(OC[C@@H](O)CN[C@H]2COC3(CCN(c4nccc(-c5ccccc5)n4)CC3)C2)c1 [Compound 572, 3-((S)-2-hydroxy-3-((R)-8-(4-phenylpyrimidin-2-yl)-1-oxa-8-azaspiro[4.5]decan-3-ylamino)propoxy)-N-methylbenzenesulfonamide] |
| 36.7 | CNS(=O)(=O)c1cccc(OC[C@@H](O)CNC2COC3(CCN(S(=O)(=O)c4ccc5c(c4)CCO5)CC3)C2)c1 (stereo partly drawn) [Compound 330, 3-((2S)-3-(8-(2,3-dihydrobenzofuran-5-ylsulfonyl)-1-oxa-8-azaspiro[4.5]decan-3-ylamino)-2-hydroxypropoxy)-N-methylbenzenesulfonamide] |
| 33.5 | CNS(=O)(=O)c1cccc(OC[C@@H](O)CNC2COC3(CCN(S(=O)(=O)c4cccc(-c5ccc(CNCCF)cc5)c4)CC3)C2)c1 (stereo partly drawn) [Compound 347, 3-((2S)-3-(8-(4′-((2-fluoroethylamino)methyl)biphenyl-3-ylsulfonyl)-1-oxa-8-azaspiro[4.5]decan-3-ylamino)-2-hydroxypropoxy)-N-methylbenzenesulfonamide] |
| 26.2 | CNS(=O)(=O)c1cccc(OC[C@@H](O)CNC2COC3(CCN(S(=O)(=O)c4cnn(-c5ccccc5)c4)CC3)C2)c1 (stereo partly drawn) [Compound 243, 3-((2S)-2-hydroxy-3-(8-(1-phenyl-1H-pyrazol-4-ylsulfonyl)-1-oxa-8-azaspiro[4.5]decan-3-ylamino)propoxy)-N-methylbenzenesulfonamide] |
| 24.8 | CNS(=O)(=O)c1cccc(OC[C@@H](O)CNC2COC3(CCN(S(=O)(=O)c4ccc5ncccc5c4)CC3)C2)c1 (stereo partly drawn) [Compound 323, 3-((2S)-2-hydroxy-3-(8-(quinolin-6-ylsulfonyl)-1-oxa-8-azaspiro[4.5]decan-3-ylamino)propoxy)-N-methylbenzenesulfonamide] |
| 20.5 | CNS(=O)(=O)c1cccc(OC[C@@H](O)CN[C@@H]2COC3(CCN(S(=O)(=O)c4cccc(-c5ccc(N)nc5)c4)CC3)C2)c1 [Compound 286, 3-((S)-3-((S)-8-(3-(6-aminopyridin-3-yl)phenylsulfonyl)-1-oxa-8-azaspiro[4.5]decan-3-ylamino)-2-hydroxypropoxy)-N-methylbenzenesulfonamide] |
| 19.1 | CNS(=O)(=O)c1cccc(OC[C@@H](O)CNC2COC3(CCN(S(=O)(=O)c4cc(Br)ccc4OC)CC3)C2)c1 (stereo partly drawn) [Compound 220, 3-((2S)-3-(8-(5-bromo-2-methoxyphenylsulfonyl)-1-oxa-8-azaspiro[4.5]decan-3-ylamino)-2-hydroxypropoxy)-N-methylbenzenesulfonamide] |
| 13.4 | CNS(=O)(=O)c1cccc(OC[C@@H](O)CNC2COC3(CCN(S(=O)(=O)c4cccc(-c5cnc(OC)nc5)c4)CC3)C2)c1 (stereo partly drawn) [Compound 108, 3-((2S)-2-hydroxy-3-(8-(3-(2-methoxypyrimidin-5-yl)phenylsulfonyl)-1-oxa-8-azaspiro[4.5]decan-3-ylamino)propoxy)-N-methylbenzenesulfonamide] |
| 11.2 | CN(C)S(=O)(=O)c1cccc(OC[C@@H](O)CNC2COC3(CCN(S(=O)(=O)c4ccc5ccccc5c4)CC3)C2)c1 (stereo partly drawn) [Compound 4, 3-((2S)-2-hydroxy-3-(8-(naphthalen-2-ylsulfonyl)-1-oxa-8-azaspiro[4.5]decan-3-ylamino)propoxy)-N,N-dimethylbenzenesulfonamide] |

— US11987588B2, “Modulators of the beta-3 adrenergic receptor useful for the treatment or prevention of heart failure and disorders related thereto” (Arena Pharmaceuticals, Inc., priority 2017, dated 2024)
